How the values were obtained:
[1] = tested on: FALS mice (G93A); assay: Treatment of G93A FALS mice with uPA inhibitor WX-C340 (survival analysis, disease progression); type: in vivo; conditions: 10 mg WX-C340 i.p. daily
Experimental: Kaplan-Meyer-Analysis, G93A-ALS-model: Comparison of the survival of control group animals (N=42) with animals treated with 10 mg/kg WX-C340 i.p. Daily (treatment start day 30, n=18).
FALS mice (G93A) begin to show behavioral symptoms at about 90 days of age while G85R mice develop symptoms at about 8 months of age. The initial symptoms is a high frequency resting tremor. This progresses to gait abnormalities and uncoordinated movements. Later the mice begin to show paralysis of the hind limbs, eventually progressing to paralysis of the forelimbs and finally to complete paralysis. Animals were sacrificed when they were unable to roll over within 10 seconds of being pushed on their side. This time point is taken as the time of death.

[2] = tested on: ALS; conditions: ALS treatment with riluzole; cited from earlier work

In the case of Cl.N=C(N)Nc1ccc(CNC(=O)CNC(=O)[C@@H](CO)NS(=O)(=O)Cc2ccc(Cl)cc2)cc1 [WX-C340, 4-chlorobenzyl-sulfonyl-(D)-Ser-Gly-(4-guanidinobenzyl)amide hydrochloride], the “progression of disease (onset of paralysis of the front legs)” value [1] was “delays the progression of disease” and the “survival of the animals (Kaplan-Meyer analysis, FIG. 4)” value ([1]; treatment start day 30, versus control group) was “significantly improves the survival”.
For Nc1nc2ccc(OC(F)(F)F)cc2s1 [riluzole], the prolongation of life [2] is given as “ca. 3 months”.

Reference: patent US8093258B2, “Use of urokinase inhibitors for the treatment and/or prevention of neuropathological diseases” (Wilex AG, priority 2005, dated 2012)
